Assay results reported in ChEMBL document CHEMBL1201862, “PubChem BioAssay data set” (2004).
The source made the active and inactive calls. Rule as the data show it, for most assays here: actives have a measured EC50 and inactives only a lower limit.

Experiments:
[1] = Shn3 3'UTR reporter inhibitors, dose response, cell-based, Clone20 osteoblasts, firefly luciferase, cherry-picked (AID 624132); assay type: functional;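 also: firefly luciferase luminescence from reporter carrying the Shn3 3'UTR in osteoblasts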
[2] = molecular target: Nonstructural protein 1 (Influenza A virus, UniProt Q194T2); assay type: functional, Influenza A virus (A/California/07/2009(H1N1))
[3] = cells; assay type: functional, cell-based
[4] = cells; assay type: functional, cell-based; remark: listed apart in the source
[5] = molecular target: T1, Serine/threonine-protein phosphatase (Candida dubliniensis (strain CD36 / CBS 7987 / NCPF 3949 / NRRLY-17841) (Yeast), UniProt B9W6M3); experiment: calcineurin pathway inhibitors in yeast reporter, dose response, S. cerevisiae, CDRE-lacZ, luminescence, secondary (AID 2388); assay type: functional, cell-based;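 also: yeast reporter cells carrying a calcineurin-responsive lacZ construct stimulated with calcium chloride; luminescent beta-galactosidase reporter signal in whole cells rather than isolated phosphatase activity; potency for inhibition where a drop in reporter signal means calcineurin blockade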
T1 sequence (B9W6M3 whole entry): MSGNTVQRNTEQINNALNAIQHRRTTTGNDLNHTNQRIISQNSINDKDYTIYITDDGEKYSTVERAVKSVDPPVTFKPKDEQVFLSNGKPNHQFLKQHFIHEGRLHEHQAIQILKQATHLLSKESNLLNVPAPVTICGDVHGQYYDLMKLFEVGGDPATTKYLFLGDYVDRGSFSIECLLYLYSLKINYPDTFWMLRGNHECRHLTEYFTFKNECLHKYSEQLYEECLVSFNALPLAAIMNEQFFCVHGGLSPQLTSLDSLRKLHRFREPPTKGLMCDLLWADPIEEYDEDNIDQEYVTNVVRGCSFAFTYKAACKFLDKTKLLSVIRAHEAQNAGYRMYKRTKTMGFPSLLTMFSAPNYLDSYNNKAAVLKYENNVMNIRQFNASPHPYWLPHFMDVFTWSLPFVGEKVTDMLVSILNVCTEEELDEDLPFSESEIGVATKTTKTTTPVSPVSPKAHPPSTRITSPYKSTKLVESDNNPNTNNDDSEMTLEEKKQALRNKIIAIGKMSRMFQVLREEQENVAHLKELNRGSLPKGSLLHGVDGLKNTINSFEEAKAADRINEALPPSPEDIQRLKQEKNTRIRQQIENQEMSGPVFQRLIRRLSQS

[6] = test system: INS1; experiment: beta cell apoptosis inhibitors, cytokine rescue, dose response, luminescence, retest (AID 449756); assay type: functional, cell-based; settings: Rattus norvegicus;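 also: cell death triggered by IL-1 beta plus TNF-alpha plus IFN-gamma mixture; protective hits raise ATP signal compared with cytokine alone wells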
[7] = NIH-3T3 fibroblast cytotoxicity, dose response, cytotoxicity control for antifungal single agent project, cell-based, Alamar Blue, dry powder (AID 602188); assay type: functional
[8] = molecular target: T2, Hexokinase HKDC1 (Homo sapiens, UniProt Q2TB90); experiment: HKDC1 hexokinase activators, dose response, biochemical, W721R variant (AID 504730); assay type: functional
T2 sequence (Q2TB90 whole entry): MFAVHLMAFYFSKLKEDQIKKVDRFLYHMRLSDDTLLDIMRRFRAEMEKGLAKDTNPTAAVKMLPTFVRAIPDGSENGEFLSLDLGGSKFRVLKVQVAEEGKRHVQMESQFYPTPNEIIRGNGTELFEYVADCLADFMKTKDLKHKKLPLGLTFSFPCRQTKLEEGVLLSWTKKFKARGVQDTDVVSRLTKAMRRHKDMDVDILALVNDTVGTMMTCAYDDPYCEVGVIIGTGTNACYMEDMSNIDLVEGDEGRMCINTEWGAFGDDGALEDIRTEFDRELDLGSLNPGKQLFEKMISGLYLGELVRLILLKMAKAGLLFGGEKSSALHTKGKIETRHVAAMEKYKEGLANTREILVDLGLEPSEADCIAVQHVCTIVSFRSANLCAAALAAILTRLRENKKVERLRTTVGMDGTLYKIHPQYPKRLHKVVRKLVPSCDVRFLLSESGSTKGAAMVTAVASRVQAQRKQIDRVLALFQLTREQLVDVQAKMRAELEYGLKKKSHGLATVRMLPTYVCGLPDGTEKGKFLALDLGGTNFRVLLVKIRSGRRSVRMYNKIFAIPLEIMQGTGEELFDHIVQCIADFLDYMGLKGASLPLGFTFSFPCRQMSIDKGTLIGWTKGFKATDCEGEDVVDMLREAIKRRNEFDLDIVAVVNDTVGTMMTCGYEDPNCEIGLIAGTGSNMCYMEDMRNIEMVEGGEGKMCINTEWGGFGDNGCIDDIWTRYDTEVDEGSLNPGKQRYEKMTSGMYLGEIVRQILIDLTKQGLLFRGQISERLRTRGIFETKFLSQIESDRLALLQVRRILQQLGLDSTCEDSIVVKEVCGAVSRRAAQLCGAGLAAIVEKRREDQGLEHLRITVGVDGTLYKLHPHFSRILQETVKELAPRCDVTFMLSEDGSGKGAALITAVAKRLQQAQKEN

[9] = molecular target: ATP-dependent molecular chaperone HSP82 (Candida albicans (strain WO-1) (Yeast), UniProt C4YTQ8); experiment: loss of DOC-induced GRE-beta-galactosidase reporter signal, dose response, Hsp90 inhibitor project, S. cerevisiae, luminescence (AID 2400); assay type: functional, cell-based;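 also: beta-galactosidase luminescence from glucocorticoid response element reporter as proxy for Hsp90 function; inhibitor potency where signal loss means Hsp90 inhibition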
[10] = molecular target: T3, Hexokinase-1 (Homo sapiens, UniProt P19367); experiment: hexokinase 1 activators, dose response, selectivity assay for HKDC1 activator project, biochemical (AID 504762); assay type: functional
T3 sequence (P19367 whole entry): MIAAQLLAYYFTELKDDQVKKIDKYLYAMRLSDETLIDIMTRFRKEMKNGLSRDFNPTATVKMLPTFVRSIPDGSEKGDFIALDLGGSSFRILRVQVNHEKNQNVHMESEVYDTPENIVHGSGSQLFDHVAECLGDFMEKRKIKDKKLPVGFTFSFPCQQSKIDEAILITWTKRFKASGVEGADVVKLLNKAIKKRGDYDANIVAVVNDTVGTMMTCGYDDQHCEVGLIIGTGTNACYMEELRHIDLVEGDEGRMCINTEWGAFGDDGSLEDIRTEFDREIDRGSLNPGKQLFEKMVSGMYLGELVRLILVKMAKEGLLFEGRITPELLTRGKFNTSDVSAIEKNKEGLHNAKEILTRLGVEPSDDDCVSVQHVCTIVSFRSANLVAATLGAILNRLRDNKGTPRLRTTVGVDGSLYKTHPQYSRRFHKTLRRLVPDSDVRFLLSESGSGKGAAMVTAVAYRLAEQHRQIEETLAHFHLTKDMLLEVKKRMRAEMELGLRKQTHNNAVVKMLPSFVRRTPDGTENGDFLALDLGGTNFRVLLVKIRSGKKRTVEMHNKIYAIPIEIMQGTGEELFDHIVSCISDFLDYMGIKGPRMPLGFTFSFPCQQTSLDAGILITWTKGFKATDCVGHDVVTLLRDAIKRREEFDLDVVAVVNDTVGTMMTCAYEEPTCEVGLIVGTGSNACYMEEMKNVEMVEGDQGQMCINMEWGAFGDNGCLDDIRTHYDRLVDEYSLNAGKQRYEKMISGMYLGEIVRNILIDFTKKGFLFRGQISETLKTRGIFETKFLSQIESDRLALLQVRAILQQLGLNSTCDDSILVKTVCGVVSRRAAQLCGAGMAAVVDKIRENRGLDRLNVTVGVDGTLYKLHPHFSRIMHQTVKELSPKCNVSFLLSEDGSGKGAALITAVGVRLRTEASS

[11] = C. albicans growth with fluconazole, confirmation, fluorescence, retest (AID 2467); assay type: functional, cell-based
[12] = test system: HEK293; experiment: inhibitors of LMP1-driven NF-kB reporter, dose response, cell-based, HEK293, luciferase, cherry-pick (AID 588343); assay type: functional; settings: Homo sapiens
[13] = test system: Streptococcus sp. 'group A'; experiment: growth inhibition of control SK(-) GAS strain, dose response, counter-screen for streptokinase expression inhibitor project, luminescence, kanamycin, BacTiterGlo, confirmation (AID 1900); assay type: functional, organism-based
[14] = HepG2 cell cytotoxicity, dose response, cytotoxicity control for Shn3 inhibitor project, CellTiter-Glo, cherry-picked (AID 624134); assay type: functional, cell-based
[15] = NIH-3T3 fibroblast cytotoxicity, dose response, cytotoxicity control, cell-based, fluorescence, Alamar Blue, secondary assay (AID 2327); assay type: functional;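 also: NIH-3T3 mouse fibroblasts cultured with fluconazole at 8 µg/mL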
[16] = control 3'UTR Renilla luciferase suppression, dose response, counter-screen for Shn3 inhibitor project, cell-based, Clone20-Shn3RL, cherry-picked (AID 624133); assay type: functional
[17] = test system: Streptococcus; experiment: Group A Streptococcus viability loss, dose response, counter-screen for streptokinase expression inhibitor project, luminescence, BacTiterGlo (AID 1915); assay type: functional, organism-based;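 also: potency for reduction of bacterial viability or growth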
[18] = cytotoxicity toward NIH3T3 fibroblasts, dose response, counter-screen, cell-based, ATP luminescence, mouse fibroblasts (AID 2010); assay type: functional;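 also: cells exposed to compound for about 90 hours before reading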
[19] = inhibitors of intracellular T. cruzi replication, confirmation, NIH3T3 host cells, beta-gal luminescence (AID 2044); assay type: functional, cell-based;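 also: intracellular parasites grown in NIH/3T3 mouse fibroblasts as host cells; luminescent beta-galactosidase reporter signal from transgenic T. cruzi replicating inside host cells; inhibitors lower the luminescence signal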

ATP-dependent molecular chaperone HSP82, sequence (C4YTQ8 whole entry): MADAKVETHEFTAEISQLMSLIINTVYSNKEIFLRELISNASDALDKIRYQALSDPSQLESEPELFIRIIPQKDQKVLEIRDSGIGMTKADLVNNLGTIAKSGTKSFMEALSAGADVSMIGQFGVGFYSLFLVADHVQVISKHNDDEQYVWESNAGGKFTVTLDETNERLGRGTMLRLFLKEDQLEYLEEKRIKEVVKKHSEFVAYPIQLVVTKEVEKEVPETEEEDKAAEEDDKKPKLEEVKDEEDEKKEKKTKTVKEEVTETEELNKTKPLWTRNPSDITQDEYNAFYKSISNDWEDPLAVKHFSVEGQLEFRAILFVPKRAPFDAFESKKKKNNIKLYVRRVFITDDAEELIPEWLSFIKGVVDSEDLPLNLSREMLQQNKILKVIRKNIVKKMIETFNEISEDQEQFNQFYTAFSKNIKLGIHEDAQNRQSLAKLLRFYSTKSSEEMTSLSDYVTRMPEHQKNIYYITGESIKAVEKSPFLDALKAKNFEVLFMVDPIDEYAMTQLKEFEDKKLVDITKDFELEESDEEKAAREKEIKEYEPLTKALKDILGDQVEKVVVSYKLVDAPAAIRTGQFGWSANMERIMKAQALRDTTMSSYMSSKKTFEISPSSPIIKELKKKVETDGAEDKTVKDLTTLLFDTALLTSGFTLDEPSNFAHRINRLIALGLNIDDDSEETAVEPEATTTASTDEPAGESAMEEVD
Nonstructural protein 1, sequence (Q194T2 whole entry): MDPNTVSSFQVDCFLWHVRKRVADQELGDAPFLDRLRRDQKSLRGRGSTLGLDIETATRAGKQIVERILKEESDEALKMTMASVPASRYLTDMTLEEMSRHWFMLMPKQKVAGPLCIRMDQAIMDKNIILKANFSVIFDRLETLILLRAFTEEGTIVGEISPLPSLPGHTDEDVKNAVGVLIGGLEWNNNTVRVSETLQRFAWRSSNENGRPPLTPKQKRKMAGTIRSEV

O=C(NNC(=S)Nc1ccc(Cl)c(Cl)c1)c1ccccn1
AC50 [1]: 2.33 µM (active)
IC50 [2]: 5.57 µM (active)
EC50 [3]: > 350 µM (not active)
EC50 [4]: 10.5 µM (active)
EC50 [5]: > 180 µM (inactive)
AC50 [6]: 1.06 µM (active)
AC50 [7]: 2.98 µM (active)
EC50 [8]: 2.2 µM (active)
EC50 [9]: > 150 µM (inactive)
EC50 [10]: > 80 µM (inactive)
EC50 [11]: 0.853 µM (active)
AC50 [12]: 6.08 µM (active)
EC50 [13]: 2.3 µM (active)
AC50 [14]: 3.72 µM (active)
EC50 [15]: 42 µM (inconclusive)
AC50 [16]: 2.44 µM (active)
EC50 [17]: 3.32 µM (active)
EC50 [18]: 5.02 µM (active)
EC50 [19]: 1.53 µM (active)
